Source: patent publication US8343945B2, “Carriers, formulations, methods for formulating unstable active agents for external application and uses thereof” (Foamix Ltd., priority 2007, dated 2013)
Read-outs that look alike come from different tables or passages of the source.

Experiments:
[1] = Minocycline HCl compatibility tests with excipients (colour change, HPLC assay); assay type: physicochemical; conditions: for Compatibility with Minocycline HCL: Summary, compatibility tested after the storage for up to 3 weeks
Procedure: About 0.5 g foam or pre-foam formulation is dissolved with diluent (65% phosphate buffer: 35% Acetonitrile (ACN)) in a 25 mL volumetric flask. The sample is shaken […] on an inverted shaker stand for 10 min at room temperature. The resulting suspension is centrifuged for 5 minutes at 4000 rpm. The supernatant is separated by vacuum pump and filtered thereafter through a 0.45 μm PTFE+GL filter. The first few drops of the filtrate are discarded. The resultant clear solution layer is analyzed by HPLC using columnRP-8. The content of MCH is calculated against an MCH standard 0.4 mg/mL (concentration). The content of 4-epiminocycline is calculated against MCH standard 0.02 mg/mL (concentration).
Color is tested by visual observation and in particular by comparison to “Pantone® formula guide solid uncoated” colors. […] Minocycline changes color to orange/greenish with oxidation or complexation. These oxidized colors are not desirable. Colors such as 609U/608U/610U are indicative of degradation by the tetracycline antibiotic.
For convenience the excipients were divided into four different groups (I-IV).
Different compositions of hydrophilic and hydrophobic solvents containing minocycline HCl were prepared by weighing the antibiotic in a glass vial and shaking overnight with each solvent investigated (Group I and II).
Mixtures of Minocycline HCl with solid excipients like titanium dioxide, stearyl alcohol, myristyl alcohol etc were prepared by suspending Minocycline HCl in oil with stirring and then adding the solid ingredient as a powder with stirring at room temperature (Group III an IV).
Oxidation of minocycline after the storage at various temperatures was detected by color change. Assay for content of the active pharmaceutical ingredient (API) and degradation product (4-epiminocycline) was determined in some samples.
A series of experiments were performed to evaluate which mixture of components/ingredients were compatible or incompatible with minocycline. Each component or combinations of components were mixed with either 1.1% or 2.2% Minocycline HCl. The glass vials containing the formulations were wrapped in aluminum—and were subjected to a range of temperatures 25° C.; 30° C.; 40° C.; 50 C; for between one week to about 3 weeks. The best results are shown as “compatible no oxidation”.

[2] = Minocycline in hydrophilic vehicles dried with Magnesium Sulphate; assay type: physicochemical; conditions: vehicle dried by the Magnesium Sulfate procedure
Procedure: A special procedure for drying of water residues was developed. Magnesium Sulphate was added to the glass beaker filled with one of the hydrophilic vehicles. The mixture was stirred during overnight and centrifuged the following morning. Clear supernatant was collected in a separate vessel and stored in a dessicator.
The following were tested using the above procedure: mixtures of Minocycline with PEG 200, PEG 400, glycerol, prolylene glycol, polyethylene glycol.

[3] = Doxycycline Hyclate compatibility test with excipients; assay type: physicochemical; conditions: for Compatibility with Doxycycline Hyclate: Summary, compatibility tested after the storage for up to 3 weeks
Procedure: (§1) Different compositions of hydrophilic and hydrophobic solvents containing Doxycycline Hyclate (Set I and Set II) and Doxycycline Monohydrate (Set III) were prepared by weighing the antibiotic in a glass vial and shaking overnight with each solvent investigated.
Group II included Doxycycline Hyclate mixed with various vehicles with addition of antioxidants like alpha tocopherol, butylated hydroxytolyene (BHT), ascorbic acid.

[4] = Doxycycline Monohydrate compatibility test with excipients; assay type: physicochemical; conditions: for Compatibility with Doxycycline Monohydrate: Summary, compatibility tested after the storage for up to 3 weeks
Procedure: as §1, with “investigated. Mixtures of Doxycycline salts 1.04% w/w with solid excipients were prepared in a similar way as for Minocycline HCl.” for “investigated.”
A similar compatibility test was performed on another form of Doxycycline-Doxycycline Monohydrate. Table 17b and Table 18.

[5] = cited from earlier work
[6] = powder for IV administration reconstituted with sterile water for injection; cited from earlier work
[7] = cited from earlier work; remark: listed apart in the source
[8] = waterless medium with alpha-tocopherol and ascorbic acid

| Compatibility with Minocycline HCl [1] | Compatibility with Minocycline HCL [1] | Oxidation of Minocycline HCL after dissolution in dried vehicle [2] | Compatibility with Doxycycline Hyclate [3] | Compatibility with Doxycycline Monohydrate [4] | Oxidation of Minocycline HCL despite added anti oxidants [1, 8] | Oxidation of Doxycycline Hyclate despite added anti oxidants [3, 8] | Oxidation of Doxycycline Monohydrate despite added anti oxidants [4, 8] | Compound | Solubility in alcohol ([5]; alcohol) | Solubility in solutions of alkali hydroxides and carbonates ([5]; solutions of alkali hydroxides and carbonates) | Solubility in water ([5]; water) | pH of solution [6] | IV solution stable for ([7]; 0.1-1 mg/mL in 0.9% sodium chloride or 5% dextrose, 25° C.) [h] | IV solution stable for ([7]; 0.1-1 mg/mL in Ringer's, 10% invert sugar, Normosol or Plasma-Lyte in dextrose, room temperature) [h] | IV solution must be infused within ([7]; 0.1-1 mg/mL in lactated Ringer's injection or 5% dextrose in lactated Ringer's) [h] | IV solution stable for ([7]; 2-8° C., protected from direct sunlight and artificial light) [h] |
| --- | --- | --- | --- | --- | --- | --- | --- | --- | --- | --- | --- | --- | --- | --- | --- | --- |
| intensive oxidation | No | oxidized quickly | No | No |  |  |  | OCC(O)CO [Glycerol] |  |  |  |  |  |  |  |  |
|  |  |  |  |  |  |  |  | Doxycycline hyclate | slightly soluble | soluble | soluble | 1.8-3.3 | 48 | 12 | ≤ 6 | 72 |
|  | No | oxidized quickly | No | No | did not prevent the oxidation | did not prevent the oxidation | did not prevent the oxidation | CC(O)CO (centres unmarked) [Propylene glycol] |  |  |  |  |  |  |  |  |
